Legend:
CEM cells [1] = assay: Viability of 3-D CEM cell cultures in Hollow Fiber Bioreactor (HFB), trypan blue; type: cell-based, Human; conditions: for number of viable cells: HFB, decreased from 10^9 cells/mL, 1000 nM, within 72 h; for viability of cells in HFB: after 3 days of treatment; for viability of cell cultures: samples analysed by HPLC
Method: CEM cells (American Type Culture Collection, Manassas, Va.) were maintained in tissue culture flasks and cultured as monolayer in 20 mL of RPMI media containing 10% Fetal Bovine Serum (FBS). When the number of cells in the culture flask reached 5-6×10^6 cells/mL the culture was harvested and then inoculated into six Hollow Fiber Bioreactors (HFB, FiberCells System, Frederick, Md.) and were continuously cultured in 37° C. and 5% CO2. HFB consists of a single, hydrophylic and polysulfone fiber with 0.1 μm diameter pores. The media circulating within the HFB cartridge and polysulphone tubing, at flow rate of 14 mL/min, brings oxygen and nutrients to cells and removes CO2 and other waste. Collagen solution was used to create an extra cellular matrix between the cells and the fiber. The polysulphone fiber was coated with protein by flushing with 10 mL of coating solution containing 1 mg collagen per 1 mL Phosphate Buffered Saline (PBS). The pH was maintained in the extra-capillary space throughout the duration of experiments between 6.8 and 7.0. Due to the perfusion the HFB absorbed sufficient oxygen from the reservoir with fresh media to keep cells alive. The perfusion medium was changed weekly when the glucose level reached 2 g/L measured with a glucometer.
Viability was assessed using trypan blue (K. Takahashi, G. Loo, Biochem. Pharm. 67 (2004) 315-324). Briefly, CEM cells were harvested from HFB, seeded in 6 well microplates and exposed to 0.4% (w/v) trypan blue dye solution. Cell number was determined manually with a hemacytometer chamber (Hausser Scientific, Horsham, Pa.).
Approximately 4×10^4 CEM cells/ml were treated on culture plates and placed for the 72 h incubation with (2-16) and (28-38) derivatives. All compounds were used for in vitro experiments and then the derivatives were selected for HFB studies to treat 10^9 CEM cells/mL in the 3-D cultures. The cells were treated 4 weeks after the cells' inoculation in the HFB. After 72 h, the growth was inhibited over 50% for 20 nM and higher concentrations in cells treated with (6), (13), (28) and (35).
CEM cells, American Type Culture Collection (Manassas, Va.), were maintained in tissue culture flasks and cultured as monolayer in 20 ml of RPMI media containing 10% Fetal Bovine Serum (FBS) and divided from 5×10^5 cells/mL to 2.5×10^4 cells/mL two times per week. When the number of the cells in the culture flask reached 5-6×10^6 cells/ml the culture was harvested and then inoculated into six Hollow Fiber Bioreactors (HFB, FiberCells System Inc., Frederick, Md.) and then continuously cultured in 37° C. and 5% CO2. The HFB consists of a single, hydrophylic and polysulfone fiber with 0.1 μm diameter pores. The media circulate within the HFB cartridge and polysulphone tubing, at flow rate of 14 mL/min, bringing oxygen and nutrients to cells and removing CO2 and other waste. Collagen solution was used to create an extracellular matrix between cells and fiber. The polysulfone fiber was coated with protein by flushing with 10 mL of coating solution containing 1 mg collagen per 1 mL Phosphate Buffered Saline (PBS). In this manner, CEM cells growing originally in suspension build up a 3-D solid tumor. During 4 weeks of culturing, the media were replaced each week.
The number of cells was determined using Trypan blue (Sigma-Aldrich, Oakville, ON) exclusion method (K. Takahashi, G. Loo, Biochem. Pharmacol. 67 (2004) 315-324). Briefly, CEM cells were harvested from HFB, seeded in 6 well microplates and exposed to 0.4% (w/v) trypan blue dye solution. Cell number was determined manually with a hemacytometer chamber (Hausser Scientific, Horsham, Pa.).

CEM cells [2] = assay: 19F MRI signal intensity of treated 3-D CEM cultures in HFB (cell number with fluorine uptake); type: cell-based, Human; conditions: for mean CEM cell density in the region with lower densities / mean number of cells in the region with higher cell densities: MRI; for mean cell concentration corresponding to mean 19F SI: cells with fluorine derivative uptake
Method: All MRI experiments were performed using a 9.4 Tesla with 21 cm bore magnet (Magnex, U.K.) and TMX console (NRC-IBD, Canada). ^19F MR images were acquired using double (^19F and ^1H) tuned transmit/receive radio frequency (RF) volume coil operating at 376 MHz and 400 MHz corresponding to ^19F and ^1H Larmour frequency at 9.4 Tesla, respectively. ^1H MR images were collected in the same imaging session that ^19F MRI. Proton MR provided anatomical images of the culture. The MRI images monitored the localization of cells around the fiber in HFB as well as the volume of the cells. Moreover, ^19F MRI selectively visualizes only intracellular fluorine uptake with no background, therefore allows cell count. The cells before and after treatment with (6), (13), (28) and (35) were imaged with ^1H MRI, this allowed changes to be observed in the 3-D cell aggregation. The cells treated with 20 nM (28) and (35) were also imaged with ^19F MRI to measure fluorine content using ^19F NMR signal intensity (SI) in each HFB treated with (28) and (35). […] To obtain the calibration curves (for each derivative separately) the phantoms consisting of HFB tubes filled with 1 nM, 10 nM, 20 nM, 100 nM, 500 nM and 1000 nM of (28) or (35) and 10^3 cells, 10^4 cells, 10^5 cells, 10^6 cells, 10^7 cells, 10^8 cells and 10^9 cells were used. The linear regression was used to find the SI dependence on cell numbers. The cell numbers estimated from ^19F MR imaging were compared to the cell viability obtained from trypan blue assays. […] One 1 mm slice was acquired with a matrix size of 256×256 and a field of view of 3×3 cm for both ^19F and ^1H.

CEM cells [3] = assay: HPLC-UV profile of treated CEM cells; type: cell-based, Human; conditions: for expression of MHC (class I) receptor, HPLC peak intensity: eluted at 53 min; for apoptotic protein signal, HPLC peak intensity: eluted at 57 min
Method: Digested cell samples were fractionated with a Gold HPLC chromatograph system equipped with a Gold 166 Ultra Violet (UV) Detector and 32-Karat software (Beckman-Coulter, Mississauga, ON, Canada). For reversed-phase HPLC, a Vydac 218 TP54 Protein & Peptide C18 analytical column, 300 Å pore size, 0.46 cm×25 cm (Separation Group, Hesperia, Calif., U.S.A.) was used. The chromatograph was equipped with a Rheodyne injector (5 μL). UV detection was performed at 245 nm. Eluent A consisted of 5% acetonitrile (ACN) water solution and eluent B of 0.01% trifluoroacetic acid in 95% ACN water solution. A linear gradient from 5 to 70% ACN was applied over 60 min.
It was assumed that signals eluted at 30-35 min were unreacted derivatives with variable intensity of 0.1 V for (28) and (35) as well as 0.35 V for (13) and 0.9 V for (6). […] An additional signal eluted at 57 min occurred in samples treated with (35) and (28) (FIGS. 10D and 10E). The signals at 57 min differ at about 5 min in elution present one from cascade of apoptotic protein in treated cells. The peak intensity of 0.3 V (28) and 0.2 V (35) corresponded to viability of cells 38% (28) and 35% (35) and unreacted derivatives 0.1 (28), 0.1 (35), respectively. The undefined additional peaks with very low intensities, less then 0.05 V, are the metabolites of derivatives or unreacted compounds.

[4] = test system: A549 (Human lung carcinoma); assay: Cytotoxicity testing (MTS) on A549; type: cell-based
Method: (§1) Cell lines used were A549 (Human lung carcinoma), HeLa (Human cervical carcinoma), MCF-7 (Human mammary gland adenocarcinoma), CEM (Human T-lymphoblastoid from ALL (Acute lymphoblastic leukemia)), M010B (Human glioma), M006X (Human glioma) and Jurkat (Human T-cell leukemia).
(§2) A series of dilutions were prepared and a wavelength scan of the diluted solution was used to determine the wavelength of maximum absorbance for each compound. Five standardized drug concentrations were scanned at this pre-determined wavelength to obtain an estimate of the compound's extinction coefficient.
(§3) A primary MTS assay was used to test the optimal number of cells for cytotoxicity assays. Cells were trypsinized, counted and introduced into seven lanes of a 96-well plate at different cell numbers (eight replicates per lane). Optimal cell numbers were determined after 72 and 96 hours of growth and were used in subsequent cytotoxicity assays. […] Cell viability was determined using the Cell Titer 96 AQueous One Solution Cell Proliferation Assay (Promega, U.S.A.).
(§4) Fits were performed using a dose-response model ideal for data showing an initial response plateau, a transition region, and a final response plateau.
(§5) [formula] […] Itop is the response obtained at very low/no drug concentration. The data and all parameters were normalized to Itop−Ibot, a measure of the maximum effect of the drug.

[5] = test system: HeLa (Human cervical carcinoma); assay: Cytotoxicity testing (MTS) on HeLa; type: cell-based
Method: as §1, §2, §3, §4, §5

[6] = test system: MCF-7 (Human mammary gland adenocarcinoma); assay: Cytotoxicity testing (MTS) on MCF-7; type: cell-based
Method: as §1, §2, §3, §4, §5

[7] = test system: CEM (Human T-lymphoblastoid from ALL); assay: Cytotoxicity testing (MTS) on CEM; type: cell-based
Method: as §1, §2, §3, §4, §5

M010B (Human glioma) = assay: Cytotoxicity testing (MTS) on M010B; type: cell-based
Method: as §1, §2, §3, §4, §5

M006X (Human glioma) = assay: Cytotoxicity testing (MTS) on M006X; type: cell-based
Method: as §1, §2, §3, §4, §5

[8] = test system: A549, HeLa, MCF-7 and CEM cell lines; assay: Cytotoxicity, mean over A549, HeLa, MCF-7 and CEM cell lines; conditions: for IC50 [log10 M] (mean logIC50): mean over A549, HeLa, MCF-7 and CEM cell lines
Description: as §1, §3, §5
Cytotoxicity screening was performed on a number of cell lines based on the cancer of origin and differing morphologies.

CEM cells [9] = type: cell-based, Human

Row | SMILES | number of viable cells (CEM cells [1]) | viability of cells in HFB (CEM cells [1]) [%] | viability of cell cultures (CEM cells [1]) | mean CEM cell density in the region with lower densities (CEM cells [2]) | mean number of cells in the region with higher cell densities (CEM cells [2]) | mean cell concentration corresponding to mean 19F SI (CEM cells [2]) | expression of MHC (class I) receptor, HPLC peak intensity (CEM cells [3]) [V] | apoptotic protein signal, HPLC peak intensity (CEM cells [3]) [V] | Fraction of cells that survive at the highest drug concentrations (Ibot) [4] | logIC50 [4] [log10 M] | Fraction of cells that survive at the highest drug concentrations (Ibot) [5] | logIC50 [5] [log10 M] | Fraction of cells that survive at the highest drug concentrations (Ibot) [6] | logIC50 [6] [log10 M] | Fraction of cells that survive at the highest drug concentrations (Ibot) [7] | logIC50 [7] [log10 M] | Fraction of cells that survive at the highest drug concentrations (Ibot) (M010B (Human glioma)) | logIC50 (M010B (Human glioma)) [log10 M] | Fraction of cells that survive at the highest drug concentrations (Ibot) (M006X (Human glioma)) | logIC50 (M006X (Human glioma)) [log10 M] | other results
1 | COc1cc2c(c(OCc3cccnc3)c1OC)-c1ccc(OC)c(=O)cc1C(NC(=O)CNC(=O)C(F)(F)F)CC2 (stereo not shown) [Compound 35] | 2.9×10^8 cells/mL | 30 | 35%±5 | 1.4×10^8 cells/mL | 4.8×10^8 cells/mL | 6.9×10^8 cells/mL | 0.7 | 0.2 |  |  |  |  |  |  |  |  |  |  |  |  | 
2 | CCOc1c(OC)c(OC)cc2c1-c1ccc(OC)c(=O)cc1[C@@H](NC(=O)CNC(=O)C(F)(F)F)CC2 [Compound 28] | 3.45×10^8 cells/mL | 35 | 38%±4 | 2.4×10^8 cells/mL | 3.5×10^8 cells/mL | 6.03×10^8 cells/mL |  | 0.3 |  |  |  |  |  |  |  |  |  |  |  |  | 
3 | CCOc1c(OC)c(OC)cc2c1-c1ccc(OC)c(=O)cc1[C@@H](NC(C)=O)CC2 [Compound 6, N-[(7S)-1-(ethoxy)-2,3,10-trimethoxy-9-oxo-5,6,7,9-tetrahydrobenzo[α]heptalen-7-yl]acetamide] |  |  | 50%±4 |  |  |  |  |  | 0.249 ± 0.030 | −7.83 ± 0.10 | 0.089 ± 0.026 | −7.89 ± 0.06 | 0.605 ± 0.015 | −7.42 ± 0.13 | −0.062 ± 0.026 | −8.64 ± 0.08 | 0.108 ± 0.013 | −7.94 ± 0.04 | 0.039 ± 0.011 | −8.41 ± 0.08 | average IC50 values compared with colchicine ([8]; average values of Table 3): stronger than colchicine; IC50 [log10 M] (mean logIC50) [8]: −7.95 ± 0.09 log10 M
4 | COc1cc2c(c(-c3cccnc3)c1OC)-c1ccc(OC)c(=O)cc1[C@@H](NC(C)=O)CC2 [Compound 13, N-[(7S)-2,3,10-trimethoxy-9-oxo-1-((pyridin(3))yl)-5,6,7,9-tetrahydrobenzo[α]heptalen-7-yl]acetamide] |  |  | 45%±2 |  |  |  | 0.05 |  | 0.218 ± 2.644 | −4.51 ± 0.32 | 0.059 ± 0.059 | −5.33 ± 0.14 | 0.364 ± 0.038 | −5.19 ± 0.09 | −0.026 ± 0.039 | −5.50 ± 0.10 | 0.305 ± 0.053 | −4.90 ± 0.09 | 0.055 ± 0.046 | −5.67 ± 0.12 | IC50 [log10 M] (mean logIC50) [8]: −5.13 ± 0.17 log10 M
5 | CCOc1cc2c(c(OC)c1OC)-c1ccc(SC)c(=O)cc1[C@@H](N(C(C)=O)C(=O)CNC(=O)C(F)(F)F)CC2 [Compound 49, N-[(7S)-3-ethoxy-1,2-dimethoxy-10-methylsulfanyl-9-oxo-5,6,7,9-tetrahydrobenzo[α]heptalen-7-yl]-N-[(trifluoroacetyl)glycyl]acetamide] |  |  |  |  |  |  |  |  |  |  |  |  |  |  |  |  |  |  |  |  | fold lower IC50 than IC50 of (39) (CEM cells [9]): about 8 fold

From patent US9458101B2 (priority 2009, dated 2016)
